Data: PMC9455983 (International Journal of Molecular Sciences, 2022)
Values joined by “and” are separate entries in the source; they are usually repeats but may differ in a detail not shown here. Equal values may be shown once. Read-outs that look alike come from different tables or passages of the source.

Tests used:
mu-opioid receptor (MOR) = molecular target: T1, mu-opioid receptor (MOR) (Rattus norvegicus, UniProt P33535); experiment: MOR radioligand competition binding assay ([3H]-DAMGO); conditions: Mu screening results
T1 construct: Rat cortices were homogenized using 50 mM Tris, pH 7.4, and centrifuged at 16,500 rpm for 10 min; from tissue; host or cells: rat cortex membranes
Protocol: MOR binding assay: Rat cortices were homogenized using 50 mM Tris, pH 7.4, and centrifuged at 16,500 rpm for 10 min. The pellets were resuspended in fresh buffer and incubated at 37 °C for 30 min. Following incubation, the suspensions were centrifuged as before, the resulting pellets were resuspended in 100 volumes of 50 mM Tris, pH 7.4 plus 2 mg/mL bovine serum and the suspensions combined. Each assay tube contained 0.5 mL of membrane suspension, 2 nM [^3H]-DAMGO, and 0.02 mg/mL mixture in a total volume of 0.65 mL [13, 45, 53, 55].
(§1) All three binding assays were terminated by filtration through GF/B filters, soaked in 5 mg/mL bovine serum albumin, 50 mM Tris, pH 7.4, on a Tomtec Mach II Harvester 96. The filters were subsequently washed with 6 mL of assay buffer. Bound radioactivity was counted on a Wallac Betaplate Liquid Scintillation Counter. Experiments were conducted using two replicates and repeated twice. Values in Scheme 2 represent the mean ± SD of two experiments with two replicates in each test.

[1] = molecular target: T2, kappa-opioid receptor (KOR) (Cavia porcellus, UniProt P41144); experiment: KOR radioligand competition binding assay ([3H]U69,593); set-up: species or system guinea pig; conditions: Kappa screening results
T2 construct: Guinea pig cortices and cerebella were homogenized using 50 mM Tris, pH 7.4; from tissue; host or cells: guinea pig cortex and cerebellum membranes
Protocol: KOR binding assay: Guinea pig cortices and cerebella were homogenized using 50 mM Tris, pH 7.4, 10 mM MgCl2-6H2O, […] centrifuged and incubated as above. Each assay tube contained 2 nM [^3H]U69,593. Assay tubes were incubated for 2 h at 25 °C. Unlabeled U50,488 was used as a competitor to generate a standard curve and determine nonspecific binding.
as §1

[2] = molecular target: T3, delta-opioid receptor (DOR) (Rattus norvegicus, UniProt P33533); experiment: DOR radioligand competition binding assay ([3H]-DPDPE); conditions: Delta screening results
T3 construct: Rat cortices were homogenized using 50 mM Tris, pH 7.4, 10 mM MgCl2-6H2O, 200 µM PMSF; from tissue; host or cells: rat cortex membranes
Protocol: DOR binding assay: Rat cortices were homogenized using 50 mM Tris, pH 7.4, 10 mM MgCl2-6H2O, 200 µM PMSF, centrifuged and incubated as above. Each assay tube contained 2 nM [^3H]-DPDPE. Assay tubes were incubated for 2.5 h at 25 °C. Unlabeled DPDPE was used as a competitor to generate a standard curve and determine nonspecific binding.
as §1

[3] = experiment 1, unit inferred, read-out: Ki (Exp 1)
[4] = experiment 2, unit inferred, read-out: Ki (Exp 2)
[5] = mean of Exp 1 and Exp 2, unit inferred, read-out: MEAN (Ki)
[6] = mean of two experiments, read-out: Ki
[7] = first Ki column, unit not printed (apparently M), read-out: Ki (first column)
[8] = mean of both Ki, unit inferred, read-out: MEAN (Ki)
[9] = second Ki column, unit not printed (apparently M), read-out: Ki (second column)

Row | Structure (SMILES) | Ki (mu-opioid receptor (MOR); [3]) [µM] | Ki (mu-opioid receptor (MOR); [4]) [µM] | Ki (mu-opioid receptor (MOR); [5]) [µM] | Ki (mu-opioid receptor (MOR); [6]) [µM] | Ki [1, 3] [µM] | Ki [1, 4] [µM] | Ki [1, 5] [µM] | Ki [1, 6] | Ki [2, 7] [µM] | Ki [2, 8] [µM] | Ki [2, 6] [µM] | Ki [2, 9] [µM]
1 | Cc1cc(O)cc(C)c1C[C@@H](CN1C(=N)NC[C@@H]1C)N1C[C@H](CC(C)C)NC1=N [1968-19] | 0.0159 | 0.0142 | 0.015 | 0.015 | 0.0893 | 0.0438 | 0.0665 | 0.0665 µM and 0.066 µM | 1.18 | 1.09 | 1.1 | 1.01
2 | Cc1cc(O)cc(C)c1C[C@H]1CN([C@@H](Cc2ccccc2)CN2C(=N)NC[C@@H]2Cc2ccc(O)cc2)C(=N)N1 [1968-20] | 0.0747 | 0.0803 | 0.0775 | 0.077 | 0.977 | 0.659 | 0.818 | 0.818 µM | 0.877 | 0.853 | 0.853 | 0.829
3 | N=C1NC[C@H](Cc2ccc(O)cc2)N1C[C@H](Cc1ccc(O)cc1)N1C[C@H](Cc2ccccc2)NC1=N [1968-21] | 0.175 | 0.199 | 0.187 | 0.187 | 3.59 | 3.29 | 3.44 | 3.44 µM | 7.83 | 7.73 | 7.73 | 7.63
4 | CC(C)C[C@@H](CN1C(=N)NC[C@@H]1Cc1ccc(O)cc1)N1C[C@H](Cc2ccccc2)NC1=N [1968-25] | 0.707 | 0.725 | 0.716 | 0.716 | 6.55 | 3.32 | 4.93 | 4.93 µM | 25.4 | 30.5 | 30.5 | 35.7
5 | CC(C)C[C@@H](CN1C(=N)NC[C@@H]1Cc1ccc(O)cc1)N1C[C@H](Cc2ccc(O)cc2)NC1=N [1968-26] | 0.781 | 0.751 | 0.766 | 0.766 | 15.8 | 13.2 | 14.5 | 14.5 µM | 7.48 | 8.07 | 8.07 | 8.67
6 | Cc1cc(O)cc(C)c1C[C@H]1CN([C@@H](CC(C)C)CN2C(=N)NC[C@@H]2Cc2ccc(O)cc2)C(=N)N1 [1968-28] | 0.118 | 0.119 | 0.118 | 0.118 | 0.84 | 1.4 | 1.12 | 1.12 µM | 4.8 | 5.07 | 5.07 | 5.34
7 | Cc1cc(O)cc(C)c1C[C@@H](CN1C(=N)NC[C@@H]1Cc1ccc(O)cc1)N1C[C@H](Cc2ccccc2)NC1=N [1968-29] | 0.117 | 0.114 | 0.116 | 0.116 | 1.45 | 1.45 | 1.45 | 1.45 µM | 0.967 | 0.836 | 0.836 | 0.705
8 | Cc1cc(O)cc(C)c1C[C@@H](CN1C(=N)NC[C@@H]1Cc1ccc(O)cc1)N1C[C@H](Cc2ccc(O)cc2)NC1=N [1968-30] | 0.0988 | 0.127 | 0.113 | 0.113 | 1.73 | 1.76 | 1.74 | 1.74 µM | 1.34 | 1.2 | 1.2 | 1.07
9 | Cc1cc(O)cc(C)c1C[C@@H](CN1C(=N)NC[C@@H]1Cc1ccc(O)cc1)N1C[C@H](CC(C)C)NC1=N [1968-31] | 0.295 | 0.298 | 0.297 | 0.297 | 2.58 | 2.08 | 2.33 | 2.33 µM | 2.2 | 1.94 | 1.94 | 1.68
10 | Cc1cc(O)cc(C)c1C[C@H]1CN([C@@H](Cc2c(C)cc(O)cc2C)CN2C(=N)NC[C@@H]2Cc2ccc(O)cc2)C(=N)N1 [1968-32] | 0.106 | 0.134 | 0.12 | 0.12 | 1.76 | 1.48 | 1.62 | 1.62 µM | 0.469 | 0.488 | 0.488 | 0.507
11 | C[C@H]1CNC(=N)N1C[C@H](Cc1ccccc1)N1C[C@H](Cc2ccccc2)NC1=N [1968-33] | 4.17 | 2.54 | 3.35 | 3.35 | 16.3 | 14.1 | 15.2 | 15.2 µM | 16.6 | 11.3 | 11.3 | 5.95
12 | C[C@H]1CNC(=N)N1C[C@H](Cc1ccccc1)N1C[C@H](Cc2ccc(O)cc2)NC1=N [1968-34] | 1.48 | 1.07 | 1.28 | 1.28 | 6.52 | 9.15 | 7.83 | 7.83 µM | 5.14 | 6.65 | 6.65 | 8.16
13 | Cc1cc(O)cc(C)c1C[C@H]1CN([C@@H](Cc2ccccc2)CN2C(=N)NC[C@@H]2C)C(=N)N1 [1968-36] | 0.167 | 0.124 | 0.146 | 0.146 | 1.03 | 1.32 | 1.17 | 1.17 µM | 3.71 | 3.55 | 3.55 | 3.4
14 | C[C@H]1CNC(=N)N1C[C@H](Cc1ccc(O)cc1)N1C[C@H](Cc2ccccc2)NC1=N [1968-37] | 0.749 | 0.588 | 0.669 | 0.669 | 3.45 | 3.88 | 3.66 | 3.66 µM | 3.43 | 3.61 | 3.61 | 3.8
